We go through one compound from article PMC10629533, “Structures and membrane interactions of native serotonin transporter in complexes with psychostimulants” (Proceedings of the National Academy of Sciences of the …, 2023).

In this assay the target is T1, porcine serotonin transporter (pSERT) (Sus scrofa, UniProt F1RN70).
T1 construct: gene SLC6A4; native full-length pSERT from porcine brain; model residues 116-654; with 15B8 Fab
In words: cryo-EM structure ([…] Å); [3H]paroxetine competition SPA with purified native pSERT. Type of assay: binding.

T1 sequence (F1RN70 38-667): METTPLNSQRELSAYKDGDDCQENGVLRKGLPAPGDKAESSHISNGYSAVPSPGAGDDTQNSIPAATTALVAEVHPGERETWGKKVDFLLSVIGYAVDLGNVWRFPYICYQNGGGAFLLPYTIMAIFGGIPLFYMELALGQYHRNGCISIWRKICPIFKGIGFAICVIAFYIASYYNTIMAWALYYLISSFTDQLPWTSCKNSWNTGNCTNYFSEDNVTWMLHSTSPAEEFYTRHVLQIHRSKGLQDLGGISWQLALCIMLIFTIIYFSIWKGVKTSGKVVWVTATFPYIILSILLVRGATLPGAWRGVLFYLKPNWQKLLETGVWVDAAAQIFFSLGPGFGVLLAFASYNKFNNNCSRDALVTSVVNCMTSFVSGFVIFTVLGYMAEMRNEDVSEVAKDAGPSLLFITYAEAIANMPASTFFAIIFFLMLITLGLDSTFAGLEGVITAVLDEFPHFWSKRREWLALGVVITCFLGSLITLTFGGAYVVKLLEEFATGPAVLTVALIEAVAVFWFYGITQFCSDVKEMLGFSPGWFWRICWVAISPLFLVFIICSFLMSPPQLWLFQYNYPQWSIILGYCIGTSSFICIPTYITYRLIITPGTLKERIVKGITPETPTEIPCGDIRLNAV

Take `CN[C@@H](C)Cc1ccccc1` [(+)-methamphetamine]: affinity was put at a Ki of 199 ± 103 µM.
